Test results from US12338236B2, “Benzoisothiazole and benzoisoxazole compounds for the treatment of mental disorders” (SUVEN LIFE SCIENCES LIMITED, priority 2022, dated 2025).
Counter-ions that a name gives are not always drawn.

How the values were obtained:
[1] = Rodent pharmacokinetic study; format: in vivo, Male Wistar rats; conditions: male, Wistar, plasma, rat; for bioavailability: oral 3 mg/kg vs intravenous 1 mg/kg, read-out: F (Bioavailability)
Procedure: Example-49: Rodent Pharmacokinetic Study
Male Wistar rats (250±50 grams) were used as experimental animals. Animals were housed individually in polypropylene cages. Two days prior to study, male Wistar rats were anesthetized with isoflurane for surgical placement of jugular vein catheter. Rats were randomly divided for oral (3 mg/kg and 10 mL/kg as dose volume) and intravenous (1 mg/kg and 2.0 mL/kg as dose volume) dosing (n=3/group) and fasted overnight before oral dosing (p.o.). However, rats allocated to intravenous dosing food and water was provided ad libitum.
Intravenous formulation was prepared by using 5% Pharmasolve+45% Propylene Glycol+50% PEG 400 as vehicle. For Oral, formulation was prepared by using 0.25% Tween 80+99.75% of 1% (w/v) hydroxyethylcellulose solution as a vehicle. The dose formulations were prepared freshly on the day of dosing.
After dosing of animal, each time point a 200 μL of blood sample was collected through the jugular vein and replenished with an equivalent volume of normal saline. Collected blood sample was transferred into a labeled eppendorf tube containing 10 μL of sodium heparin (1000 IU/mL) as an anticoagulant. Typically blood samples were collected at following time points: 0.08, 0.25, 0.5, 1, 2, 4, 6, 8, and 24 h post dose. Blood was centrifuged at 4000 revolutions per minute (rpm) for 10 min. Plasma was separated and stored frozen at −80° C. until analysis. The concentrations of the test compounds were quantified in plasma by qualified LC-MS/MS method using suitable extraction technique in the calibration range around 1-2000 ng/mL in plasma. Study samples were analyzed using calibration samples in the batch and quality control samples spread across the batch.
Pharmacokinetic parameters Cmax, AUC0-t, t1/2, Clearance and Bioavailability (F) were calculated using standard non-compartmental model by using Phoenix WinNonlin 8.1 version Software package.

[2] = Rodent brain penetration study; format: in vivo, Male Wistar rats; conditions: male, Wistar, brain and plasma, po; rat, 3 mg/kg, p.o. @ 1 h; read-out: Rat Brain Penetration (Cbrain/Cplasma)
Procedure: Example-50: Rodent Brain Penetration Study Male Wistar rats (260±40 g) were used as experimental animals. Three animals were housed in each cage. Animals were given water and food ad libitum throughout the experiment and maintained on a 12 h light/dark cycle. Brain penetration was determined in discrete manner in rats. One day prior to dosing day, male Wistar rats were acclimatized and randomly grouped according to their weight. At each time point (0.50, 1 and 2 h) n=3 animals were used. The test compounds were suitably preformulated and administered orally at (free base equivalent) 3 mg/kg. Blood samples were removed via cardiac puncture by using isoflurane anesthesia. The animals were sacrificed to collect brain tissue. Plasma was separated and brain samples were homogenized and stored frozen at −20° C. until analysis. The concentrations of the test compounds in plasma and brain were determined using LC-MS/MS method. The test compounds were quantified in plasma and brain homogenate by qualified LC-MS/MS method using suitable extraction technique in the calibration range of 1-2000 ng/mL. Study samples were analyzed using calibration samples in the batch and quality control samples spread across the batch. Extent of brain-plasma ratio (Cbrain/Cplasma) was calculated

[3] = biological target: T1, human histamine H1 receptor (Homo sapiens, UniProt P35367); test: Determination of Ki values at histamine H1 receptor ([3H]-Pyrilamine SPA binding); conditions: hH1, CHO-K1, [3H]-Pyrilamine 2 nM
T1 construct: expressed in transfected cells; host or cells: CHO-K1
T1 sequence (P35367 whole entry): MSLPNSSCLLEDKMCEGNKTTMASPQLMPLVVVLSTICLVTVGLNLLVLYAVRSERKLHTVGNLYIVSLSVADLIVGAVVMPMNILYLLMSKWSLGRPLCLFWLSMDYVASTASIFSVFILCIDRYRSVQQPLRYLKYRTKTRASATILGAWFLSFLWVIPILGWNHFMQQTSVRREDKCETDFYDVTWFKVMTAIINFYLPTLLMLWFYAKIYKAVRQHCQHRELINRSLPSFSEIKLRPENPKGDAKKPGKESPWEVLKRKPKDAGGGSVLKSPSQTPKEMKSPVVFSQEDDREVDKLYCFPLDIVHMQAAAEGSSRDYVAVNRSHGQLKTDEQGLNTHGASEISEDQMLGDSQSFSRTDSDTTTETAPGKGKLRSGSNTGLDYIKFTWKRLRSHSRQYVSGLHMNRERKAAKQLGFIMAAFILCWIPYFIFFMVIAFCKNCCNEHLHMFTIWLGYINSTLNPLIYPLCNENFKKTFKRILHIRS
Procedure: Example-48: Determination of Ki values at Histamine H1 receptor
• Receptor source: Recombinant mammalian cells (CHO-K1) • Radioligand: [^3H]-Pyrilamine (20.7 Ci/mmol) • Final ligand concentration: 2 nM • Non-specific determinant: 0.1 mM Pyrilamine • Reference compound: Pyrilamine • Positive control: Pyrilamine Incubation conditions: Reactions were carried out in buffer with pH 7.4 containing 67 mM Tris-HCl and SPA beads (0.1 mg/well) for 1 h at 37° C. Radioactivity proximal to SPA beads was determined by scintillation proximity assay and compared to the control values in order to ascertain any interactions of the test compound(s) with cloned human histamine H1 receptor binding site.

human SERT = biological target: T2, human SERT (Homo sapiens, UniProt P31645); test: Determination of Ki values at SERT receptor ([3H]-Citalopram SPA binding); conditions: hSERT, HEK293, [3H]-Citalopram 2 nM
T2 construct: expressed in transfected cells; host or cells: HEK293
T2 sequence (P31645 whole entry): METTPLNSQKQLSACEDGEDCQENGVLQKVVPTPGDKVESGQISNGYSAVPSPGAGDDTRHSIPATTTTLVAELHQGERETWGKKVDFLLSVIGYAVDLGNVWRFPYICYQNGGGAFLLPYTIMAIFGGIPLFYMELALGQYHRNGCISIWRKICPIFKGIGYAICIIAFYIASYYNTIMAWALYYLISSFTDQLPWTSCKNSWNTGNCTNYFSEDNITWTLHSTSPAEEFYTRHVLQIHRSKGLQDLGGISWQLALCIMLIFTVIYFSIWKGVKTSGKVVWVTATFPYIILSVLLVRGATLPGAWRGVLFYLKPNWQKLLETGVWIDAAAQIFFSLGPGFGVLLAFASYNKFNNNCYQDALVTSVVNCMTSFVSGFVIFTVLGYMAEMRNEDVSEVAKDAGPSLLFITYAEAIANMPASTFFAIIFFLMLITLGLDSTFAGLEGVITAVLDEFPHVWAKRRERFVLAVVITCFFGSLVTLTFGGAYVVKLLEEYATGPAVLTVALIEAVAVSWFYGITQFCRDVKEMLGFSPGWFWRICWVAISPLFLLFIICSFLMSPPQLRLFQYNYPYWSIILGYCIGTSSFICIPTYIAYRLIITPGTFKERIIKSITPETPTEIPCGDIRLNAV
Procedure: Example-46: Determination of Ki Values at SERT Receptor
• Receptor source: Recombinant mammalian cells (HEK293) • Radioligand: [^3H]-Citalopram (80.8 Ci/mmol) • Final ligand concentration: 2 nM • Non-specific determinant: 0.1 mM Venlafaxine • Reference compound: Venlafaxine • Positive control: Venlafaxine Incubation conditions: Reactions were carried out in buffer with pH 7.4 containing 50 mM Tris-HCl, 150 mM NaCl, 5 mM KCl and Scintillation proximity assay (SPA) beads (0.1 mg/well) for 3 h at RT. Radioactivity proximal to SPA beads was determined by scintillation proximity assay and compared to the control values in order to ascertain any interactions of the test compound(s) with cloned human SERT receptor binding site.

motor coordination = test: Rat rotarod assay; format: in vivo; conditions: rats, doses of 3 & 10 mg/kg, 60 min prior to trial
Procedure: Example-52: Rat Rotarod Assay
The rotarod test was employed to investigate the possible effect of Example-2 on motor coordination. Twenty hours prior to the test, rats were trained to remain on revolving bar (4 rpm) of the rotarod apparatus (TSE Systems; GmHb, Germany). Animals that successfully stayed on rotating rod for 60 seconds (out of 4 trials per animal) were selected for further study. […] A single trial was carried out on the next day. Animals that were able to stay on the rotating rod for 60 seconds were chosen for further study. Animals were administered Example-2 or Vehicle 60 min prior to the trial. The latency to fall from the rotating rod was noted.

DOPA levels in striatum = test: Reserpine-induced DOPA accumulation; format: in vivo, Male Wistar rats; conditions: rats, 3 mg/kg, p.o., 1.16 h before sacrifice, striatum
Procedure: Example-53: Reserpine-Induced DOPA Accumulation
Male Wistar rats were pretreated with reserpine (5 mg/kg, s.c.) approximately 18 h before sacrifice and were thereafter fasted until sacrifice. Example-2 (3 mg/kg, p.o.) and (3-(3-hydroxyphenyl)-N-n-propylpiperidine (3-PPP); 30 mg/kg, s.c.) were administered 1.16 h and 1 h, respectively before sacrifice. Haloperidol (0.5 mg/kg, s.c.) was used as a positive control and was dosed 10 min prior to 3-PPP in a separate group of animals. 3-Hydroxybenzylhydrazine dihydrochloride (NSD-1015; 100 mg/kg, s.c.) was then administered 0.5 h before sacrifice. Each rat was sacrificed, brain was removed and then striatum was isolated. The tissue was immediately weighed and homogenized in 0.1 N perchloric acid by means of an ultrasonic disruptor while being cooled in ice. The homogenate was centrifuged at 4° C. at 20,000 g for 15 min. The supernatant was assayed for dihydroxyphenylalanine (DOPA) levels using HPLC-ECD.

Question: Which bioavailability [1] does the source give for `Cc1noc(-c2csc(OCCCN3CCN(c4nsc5ccccc45)CC3)n2)n1` [compound 12, 3-(4-{3-[4-(3-Methyl-[1,2,4]oxadiazol-5-yl)-thiazol-2-yloxy]-propyl}-piperazin-1-yl)-benzo[d]isothiazole oxalate] here?
Answer: 18 ± 4.3%

Question: And the AUC(0-t) ([1]; intravenous (bolus), 1 mg/kg)?
Answer: 0.467 ± 0.115 µg·h/mL

Question: What about the half-life ([1]; intravenous (bolus), 1 mg/kg) of the same compound?
Answer: 2.59 ± 0.49 h

Question: And the AUC(0-t) ([1]; oral (gavage), 3 mg/kg)?
Answer: 0.25 ± 0.06 µg·h/mL

Question: And the Cmax ([1]; oral (gavage), 3 mg/kg)?
Answer: 0.279 ± 0.0592 µg/mL

Question: And the Kp at 1 h [2]?
Answer: 2.09

Question: And the Ki [3]?
Answer: 0.0041 µM

Question: And the Ki (human SERT)?
Answer: 0.157 µM

Question: For `Cc1nnc(-c2csc(OCCCN3CCN(c4nsc5ccccc45)CC3)n2)o1` [Example-2, 3-(4-{3-[4-(5-Methyl-[1,3,4]oxadiazol-2-yl)-thiazol-2-yloxy]-propyl}-piperazin-1-yl)-benzo[d]isothiazole oxalate], which “Effect on motor coordination (latency to fall from rotating rod)” value (motor coordination) is on record?
Answer: No notable effects on motor coordination

Question: And the “Blockade of the effects of 3-PPP on reserpine induced DOPA accumulation” value (DOPA levels in striatum)?
Answer: 25%

Question: What about the bioavailability [1] of the same compound?
Answer: 46 ± 2%

Question: What about the AUC(0-t) ([1]; intravenous (bolus), 1 mg/kg) of the same compound?
Answer: 0.575 ± 0.0608 µg·h/mL

Question: What about the half-life ([1]; intravenous (bolus), 1 mg/kg) of the same compound?
Answer: 1.98 ± 0.96 h

Question: And the AUC(0-t) ([1]; oral (gavage), 3 mg/kg)?
Answer: 0.795 ± 0.0345 µg·h/mL

Question: And the Cmax ([1]; oral (gavage), 3 mg/kg)?
Answer: 0.724 ± 0.17 µg/mL

Question: What about the Kp at 1 h [2] of the same compound?
Answer: 1.25

Question: What about the Ki [3] of the same compound?
Answer: 0.0099 µM

Question: What about the Ki (human SERT) of the same compound?
Answer: 0.08 µM
